From a melting point compilation (Tetko et al.; mined from patent text by program, amines drawn as free bases though some values may be those of a salt)

| Structure (SMILES) | melting point [°C] |
| --- | --- |
| COc1cc2c(cc1OC)CN(CC(O)c1ccc(N)cc1)CC2 (stereo not given) | 168 |
| C#CCOc1cc(-n2nc3n(c2=O)CCCN3)c(F)cc1Cl | 172 to 174 |
| Cc1cc(C(=O)NCCO)ncc1C(c1c(F)ccc(F)c1F)S(=O)(=O)CCC(F)(F)F (stereo not given) | 146 to 147 |
| CN(C)C1(c2ccccc2)CCC(CNC(=O)N2CCC(c3c[nH]c4ccc(F)cc34)CC2)CC1 (stereo not given) | 95 to 98 |
| CCCCCCCCCCCCc1ccc(CO)cc1 | 44 to 45 |
| OCC(CO)SCc1ccc(Cl)cc1 | 70 to 75 |
| CCOC(=O)NS(=O)(=O)c1c(C(=O)OCC)c(Cl)nn1C | 82 to 85 |
| COc1cc(C)c2c(c1)C(=O)CCC2 | 55 |
| Nc1c(F)cc(C=O)c(F)c1Br | 132 to 133 |
| CCSC1COC(Cn2cncn2)(c2ccc(Cl)cc2Cl)C1 (stereo not given) | 64 |
| COc1ccc2c(c1)nnc1c(C)nc(-c3cc(Cl)ccc3Cl)n12 | 144 to 147 |
| COCC1OC(n2cnc3c(NC4CCCC4)ncnc32)C(O)C1O (stereo not given) | 164 to 166 |
| O=C(NC1N=C(c2ccccc2F)c2ccccc2NC1=O)c1ccsc1 (racemic) | 238 to 239 |
| COC(=O)Nc1nc2cc(S(=O)CC3CC3)ccc2[nH]1 (stereo not given) | 223 to 224 |
| CC(=O)Nc1cc(C(=O)O)cc(C(F)(F)F)c1 | 194 to 220 |
| COC(=O)c1sc2ccc(OC)cc2c1OCC#N | 160 |
| COc1ccc2c(c1)CCC(CN1CCC(O)(Cc3ccc(C)cc3)CC1)C2 (racemic) | 91 to 94 |
| Nc1c2c(nc3ccccc13)CCCC2OCCBr (stereo not given) | 164 |
| CN1C(=O)CN=C(c2ccccc2Cl)c2cccn21 | 132 to 134 |
| Cc1cc(C)cc(N(CCN)Cc2ccc3nc(NCCCN4CCOCC4)n(Cc4nc(C)ccc4O)c3c2)c1 | 196 |
| NCCCN1CCC(c2noc3cc(F)ccc23)CC1 | 59 to 62 |
| N#Cc1nn(-c2c(Cl)cc(C(F)(F)F)cc2Cl)c(N2CCCC2)c1S(=O)(=O)C(F)(F)F | 187 to 189 |
| COc1cc2nc(N3CCC(=O)CC3)nc(N)c2cc1OC | 228 to 230 |
| Cn1nc(-c2ccccc2)c(C2CCCCC2)c1N | 212 to 214 |
| CCCCCCCOc1ccc(C(=O)O)cc1OCCCCCCC | 122 to 123 |

| Structure (SMILES) | melting point [°C] |
| --- | --- |
| CCN(CC)CCNC(=O)c1nc(Cl)c(N)nc1OC | 158 |
| CS(=O)(=O)Nn1c(=O)[nH]c2cc([N+](=O)[O-])c(-n3cccc3)cc2c1=O | 243 to 250 |
| C=C(C(=O)OC1CC2CCC(C1)N2C(C)=O)c1ccccc1 (stereo not given) | 104 to 107 |
| OCCNc1ccc(C2CCCCC2)cc1 | 39 to 41 |
| Cc1ccc(OCCN2CCN(c3cc(Cl)nnc3Cl)CC2)cc1 | 95 to 96 |
| N#CCC1CN(Cc2ccccc2)CCO1 (stereo not given) | 62 |
| Cc1cc(C#N)cc(C)c1Oc1nc(Nc2ccc(C#N)cc2)ncc1N | > 300 |
| CON1C=C2N=NC3=C(N2C1)N(C1CCCCC1)CC(C)=C3 | 174 to 177 |
| CCNc1cc(C)c(S(=O)(=O)C[N+](=O)[O-])c(C)c1 | 143 |
| CC(C)(C)Nc1c(NCc2cccc(F)c2)c(=O)c1=O | 295 to 297 |
| CCc1c(F)c(F)c(-n2ncc(C#N)c2NCC(C)C(=O)O)c(F)c1F (stereo not given) | 138 to 140 |
| CC1N=CC=C(CS)C1(O)CC(=O)O (stereo not given) | 185 to 187 |
| c1cn(-c2nc(N3CCOCC3)nc(-n3ccnc3)n2)cn1 | 268 to 270 |
| O=C(O)C(OCc1ccc(Cl)cc1)(C(F)(F)F)C(F)(F)F | 98 to 99 |
| CC1(C)C(=NO)C(=O)C2(C)CC(O)C12 (stereo not given) | 115 to 118 |
| CC(=O)c1cc2c(cc1Cl)C(C)(C)CC2(C)C | 69 to 71 |
| C#CC12CC3CC(C#C)(C1)CC(C#C)(C3)C2 | 84 to 86 |
| CCC(=O)c1c(O)oc(=O)c(C(=O)CC)c1O | 114 to 115 |
| CNc1c(C)cc([N+](=O)[O-])cc1C | 99 |
| O=C1Nc2cc(F)ccc2C1c1ncnc2nn(C3CCCCC3)cc12 (stereo not given) | 297 to 300 |
| CN1CCc2c(cccc2NC(=O)c2ccccc2Br)C1 | 206 to 208 |
| Cc1cc2c(c3ccc(=O)[nH]c13)OCC2C=O (stereo not given) | 230 to 232 |
| COc1ccc2nc(SCc3nccc(OC)c3OC)[nH]c2n1 | 157 |
| Cn1c(C(F)(F)F)cc(=O)n(-c2ccc3snc(C4SCCS4)c3c2)c1=O | 227 to 232 |
| CC1(C)NC(C(=O)O)C(C)(C)S1 (stereo not given) | 206 to 208 |

Other lines, results leading:

| melting point [°C] | Structure (SMILES) |
| --- | --- |
| > 130 | CCc1c(-c2ccc(O)cc2)c2c(COC)cc3cccc1n32 |
| 92.7 | O=C(c1cccc(Cl)c1)c1ccnc2ccccc12 |
| 100 to 110 | COC(=O)CCCc1cc2cc(Cl)ccc2n1S(=O)(=O)c1ccc2nc(C)oc2c1 |
| 187 | Cc1cc2cc(CN3CCCC3)cnc2cc1NC(=O)c1ccc(-c2ccsc2)cc1 |
| 105 to 113 | CCCn1cc(Cc2ccc(C(=O)O)cc2OC)c2cc(CCNC(=O)N3CCOCC3)ccc21 |
| 176 | CCCCCCCC(=O)NCc1cccc(-c2ccc(C=CC(=O)O)cc2)c1 |
| 173 to 174 | CCOCc1nc2c(N)nc3cc(-c4ccccc4)cnc3c2n1CC(C)(C)F |
| 164 | Cn1c(NC(=O)OCc2ccccc2)c(-c2ccccc2)c2cc(Cl)ccc21 |
| 141 to 142 | Cc1ccc(S(=O)(=O)N=CNCc2ccc(-c3csc(N=C(N)N)n3)o2)cc1 |
| 197 to 198 | Cc1ccccc1C(=O)Nc1ccc(C(=O)N2CCCC(N(C)S(C)(=O)=O)c3ccccc32)cc1 (stereo not given) |
| 138 to 142 | COC(=O)c1cccc(Oc2ccc(NC(=O)c3ccc([N+](=O)[O-])cc3Br)cc2NC(=O)c2ccc([N+](=O)[O-])cc2Br)c1C(=O)OC |
| 251 | COc1ccc2[nH]c(C(=O)N[C@H]3CCN(C(=O)c4cc(Cl)cc(Cl)c4)[C@H](Cc4ccccc4)C3)cc2c1 (relative stereo) |
| 215 to 225 | COc1cc2c(Nc3ccc(Sc4nccn4C)c(Cl)c3)c(C#N)cnc2cc1/C=C/CCN(C)C |
| 149 to 151 | O=C(C=Cc1cccnc1)NCCCCN1CCCN(C(c2ccccc2)c2ccccc2)CC1 |
| 108 to 112 | COC(=O)c1cc(N2CCCC2)c(Oc2ccccc2)c(S(=O)(=O)Cl)c1 |
| 119 to 123 | C=C1c2ccccc2CC(=NO)Cc2ccccc21 |
| 101 to 103 | C=CCc1ccc(O)c(-c2cc(CC=C)ccc2O)c1 |
| 166 to 168 | COc1ccccc1NC(=O)Nc1ccc(C2CCN(C(=O)Nc3ccc(OCCO)cc3Cl)CC2)cc1 |
| 140 to 141 | Cc1cccc2c1Sc1c(C)cccc1N2 |
| 67 to 69 | CN(CCOc1ccccc1)[C@H]1CC[C@H](c2ccc(OCc3ccccc3)cc2)CC1 |
| 230 | CCOC(=O)C1=C(C)Nc2nc(N)nc(N)c2C1c1cccc([N+](=O)[O-])c1 (stereo not given) |
| 68 to 70 | O=[N+]([O-])c1ccc(Oc2ccc(CBr)cc2)cc1 |
| 108 | COc1ccc(Cl)cc1C(=O)c1cc(Cl)ccc1OC |
| 230 to 232 | CN(c1ccc2ccccc2c1)c1nc(=O)c2cccnc2s1 |
| 223 to 225 | O=c1[nH]nc2c3c(cccc13)Oc1ccc(COP(=O)(OCc3ccccc3)OCc3ccccc3)cc1-2 |

| melting point [°C] | Structure (SMILES) |
| --- | --- |
| 178 | CCCCNC(=O)NCCc1nc(-c2ccc(-c3ccccc3)cc2)c[nH]1 |
| 198 to 200 | CCCCn1c(=O)c2c(NC)n[nH]c2n(CCNCc2ccccc2)c1=O |
| 99 | O=C(NCc1ccccc1-c1ccccc1C(=O)NCCc1ccccn1)Nc1ccccc1 |
| 65 | N#Cc1ccc(C2CC(=O)N(Cc3ccccc3)Cc3cncn32)cc1 (stereo not given) |
| 164 to 165 | O=C(OCc1ccccc1)c1ccc(OC(=O)c2ccc(O)c(C34CC5CC(CC(C5)C3)C4)c2)cc1 |
| 85 to 88 | CC[C@H](CO)NC(=O)c1ccc(C(=O)N2CCN(c3ncccc3NC(C)C)CC2)nc1 |
| 126 to 128 | COc1ccc(-n2nc3c(cc2=O)CCSc2sccc2-3)cc1 |
| 194 to 198 | COC(=O)CNc1cc(-c2c3ccccc3c(Br)c3sc(C)c(C)c23)cc(Br)c1OC |
| 106 to 108 | CC(C)(c1ccc(Oc2cccc(N)c2)cc1)c1ccc(Oc2cccc(N)c2)cc1 |
| 168 | CC(C)(C)OC(=O)CCc1cccc(-c2nc(=O)c3ccc(Cl)cc3s2)n1 |
| 202 to 207 | CC(C)C(NC(=O)OCc1cccnc1)C(=O)NC(Cc1ccccc1)C(O)C(O)C(Cc1ccccc1)NC(=O)C(NC(=O)OCc1cccnc1)C(C)C (stereo not given) |
| 222 to 225 | Cc1nc2c3c(ccn2c1C)C(=O)C(O)C(c1ccsc1)N3 (stereo not given) |
| 138 | Cc1cc(SCc2ccc(-c3ccccc3)cc2)ccc1OCC(=O)O |
| 56 to 58 | COc1ccc(CCNCCc2ccc(OC)c(OC)c2)cc1OC |
| 136 to 138 | O=C(O)CCCCc1ccc(NS(=O)(=O)c2ccccc2)cn1 |
| 97 to 100 | COC(=O)COc1ccc(C(O)CNCc2ccc(C(=O)OC)cc2)cc1 (stereo not given) |
| 180 to 181 | Cc1ccccc1CC(=NC#N)NC(NC(=O)Cc1ccc2c(c1)OCCO2)C(C)(C)C (stereo not given) |
| 195 to 196 | O=C(NC(=O)C(Cl)CCl)Nc1cccc(Cl)c1Cl (stereo not given) |
| 135 to 138 | COc1ccc2c(c1)C(=O)C(C)(C)CC2c1ccc(Cl)cc1 (stereo not given) |
| 223 to 224 | O=C(Nc1ccc(F)cc1O)c1cc(Cl)c(O)c(Cl)c1 |
| 136 | CC(=CC(=O)c1ccccc1)NC(Cc1ccc(-c2cccc(CNCC(=O)c3ccccc3)c2)cc1)C(=O)O (stereo not given) |
| 187 to 188 | CC1=C(C(=O)OC(C)(C)C)C(c2ccccc2)C(C(=O)OC(C)(C)C)=C(C)N1 |
| 198 | CC(C)(Oc1ccc(CC(=O)Nc2ccccc2)cc1)C(=O)O |
| 224 to 233 | O=c1[nH]c2ccc(C3=NOC(CN4CCC(Cc5ccc(F)cc5)C(O)C4)C3)cc2o1 (stereo not given) |
| 113 to 118 | CCCNCC(=O)N1c2ccccc2N2CCc3cccc(c32)C1C (stereo not given) |
